Like-named read-outs stand apart in the source and are kept apart here.
Experiments:
HsAcAS WT = target: T1, HsAcAS WT (Homo sapiens, UniProt Q9NR19); experiment: HsAcAS Rapid-Fire QQQ mass spectrometry assay; type: biochemical; conditions: for IC50: approximate Km for each substrate, read-out: IC50 (μM), AcAS HsWT
T1 construct: made in house; host or cells: Expi293 cells (pCDNA 3.1, transient transfection)
Experimental: The human form of acetyl-CoA synthetase was assayed in 100 mM HEPES (pH7.4), 100 mM NaCl, 250 mM KCl, 50 mM MgCl2, 1 mM DTT, 0.005% NP40, 400 μM ATP, 70 μM acetate, 40 μM CoA and 2 nM recombinant HsAcAS. Assay ready plates containing different concentrations of inhibitor were prepared using an Echo 550 acoustic dispenser (Labcyte Inc.), dispensing 150 nL of compound per well. Assays were conducted in a total volume of 15 μL for 30 min at room temperature before being quenched with the addition of 85 μL 1% formic acid containing 0.5 μg/mL n-Propionyl coenzyme A (Sigma P5397) as an internal standard. Reaction products were detected using a RapidFire 365 system (Agilent, Santa Clara, CA) coupled with a triple quadrupole mass spectrometer 6740 (Agilent).
The sipper was washed to minimize carryover with 0.1% TFA in deionized water followed by 0.1% TFA in acetonitrile/deionized water (95%/5%, v/v). The sipper was washed to minimize carryover with deionized water followed by acetonitrile. Aspiration time, load/wash time, elution time, and re-equilibration time were set to 600, 3000, 5000, and 500 ms, respectively, with a cycle time of approximately 10 s. The triple-quadrupole mass spectrometer with electrospray ion source was operated in positive multiple reaction monitoring (MRM) mode. The detailed setting for the mass spectrometer parameters was as follows: capillary voltage, 3000 V; gas temperature, 350°C; gas flow, 7 L/min; nebulizer, 40 psi; sheath gas temperature, 300°C′ sheath gas flow, 11 L/min; and nozzle voltage, 1500 V. The MRM transitions for acetyl-CoA as a reaction product were set as 810.1/303.1 & 810.1/428.1 (quantifier & qualifier with dwell time of 50 ms, 100V fragmentor, and collision energies of 30 & 28 eV respectively) and for n-propionyl-CoA as an internal standard as 824.2/317.2 & 824.2/428.0 (quantifier & qualifier with dwell time of 50 ms, 100V fragmentor, and collision energies of 32 & 26 eV respectively). The mass resolution window for both parental and daughter ions was set at as a unit (0.7 Da). Peak areas were integrated, and area ratios of acetyl-CoA to the internal standard (n-propionyl CoA) were used for quantitation. Data were converted to % inhibition relative to the uninhibited enzyme control and fitted to Equation 3.

[1] = test system: P. falciparum control YFP cKD line; experiment: cKD compound susceptibility assay, control YFP cKD line; type: cell-based; conditions: Plasmodium falciparum
Experimental: Synchronous ring-stage, aptamer-regulated PfAcAS and control parasite lines were resuspended in varying aTc concentrations (high = 50 nM, low = 1 nM, and no aTc) and distributed into the drug plate. DMSO carrier and chloroquine (200 nM) wells served as positive and negative controls.

[2] = read-out: control cKD EC50 ± SD (nM) (0nM aTc)
[3] = read-out: control cKD EC50 ± SD (nM) (50nM aTc)

T1 sequence (Q9NR19 whole entry): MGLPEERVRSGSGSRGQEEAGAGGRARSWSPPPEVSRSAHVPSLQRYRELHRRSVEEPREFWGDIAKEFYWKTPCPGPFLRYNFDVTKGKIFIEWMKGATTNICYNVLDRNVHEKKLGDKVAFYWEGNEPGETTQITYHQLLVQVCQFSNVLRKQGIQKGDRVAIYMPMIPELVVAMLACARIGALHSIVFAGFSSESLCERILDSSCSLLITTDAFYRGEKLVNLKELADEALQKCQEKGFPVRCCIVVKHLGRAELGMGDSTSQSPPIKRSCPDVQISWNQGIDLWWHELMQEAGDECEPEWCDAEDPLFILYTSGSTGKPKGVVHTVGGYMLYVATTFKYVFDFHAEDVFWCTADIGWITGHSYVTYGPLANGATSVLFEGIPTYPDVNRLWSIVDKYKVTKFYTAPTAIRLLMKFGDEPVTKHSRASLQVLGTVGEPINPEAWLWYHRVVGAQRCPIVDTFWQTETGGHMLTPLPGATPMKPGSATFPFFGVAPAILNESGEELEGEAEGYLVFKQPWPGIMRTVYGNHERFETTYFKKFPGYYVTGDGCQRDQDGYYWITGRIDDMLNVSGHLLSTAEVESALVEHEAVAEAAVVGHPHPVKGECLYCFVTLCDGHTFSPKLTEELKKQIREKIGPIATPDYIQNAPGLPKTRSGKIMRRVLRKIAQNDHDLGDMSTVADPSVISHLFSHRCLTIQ

Compound	IC50 (HsAcAS WT) [µM]	EC50 [1, 2] [nM]	EC50 [1, 3] [nM]	Hill, AcAS HsWT (HsAcAS WT)
CCN(CC)S(=O)(=O)c1ccc(Cl)c(C(=O)Nc2ccc3nc(C)sc3c2)c1 [MMV019721]	> 100	200 ± 61	210 ± 80	
O=C(NNC(=O)c1csnn1)c1ccc(Cl)cc1 [MMV084978]	18 ± 1.9	240 ± 29	230 ± 23	0.85 ± 0.07

— PMC8878317, “Chemogenomics identifies acetyl-coenzyme A synthetase as a target for malaria treatment and prevention” (Cell Chemical Biology, 2022)
